According to ChEMBL document CHEMBL1201862, “PubChem BioAssay data set” (2004):
Activity calls are given as the source filed them.

system: not listed separately; test: NIH-3T3 fibroblast cytotoxicity, dose response, cytotoxicity control, cell-based, fluorescence, Alamar Blue, secondary assay (AID 2327); type: functional; conditions: not given;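 further: NIH-3T3 mouse fibroblasts cultured with fluconazole at 8 µg/mL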

Compound	EC50
Cc1cc(-c2cc(C(=O)O)c3ccccc3n2)c(C)s1	> 160 µM (inactive)
N#C/C(=C(/O)c1ccco1)c1nc2ccccc2[nH]1	> 150 µM (inactive)
CC1(C)CC(N/C=C2/C(=O)N(Cc3ccc4c(c3)OCO4)C(=O)c3ccccc32)CC(C)(C)N1	> 160 µM (inactive)
CCc1nnc(NC(=O)Cn2ccc(C(F)(F)F)n2)s1	> 150 µM (inactive)
Nc1ncnc2c1ncn2[C@@H]1O[C@H](CO)C[C@H]1O [CORDYCEPIN]	> 150 µM (inconclusive)
COc1cc(C(=O)OCc2cc(=O)c(O)co2)ccc1OC(F)F	> 160 µM (inactive)
Cc1ccc(NNC(=O)c2cccs2)cc1Cl	29.6 µM (active)
CCCc1cc(O)nc(SCc2csc(-c3ccccc3)n2)n1	> 160 µM (inactive)
CNc1ccc(OC)cc1-n1cnc(-c2ccc([N+](=O)[O-])cc2)c1	> 150 µM (inactive)

system: not listed separately; test: Luminescence Cell-Based Dose Response HTS to Identify Activators of Luciferase Translation or Activity in H4 […] Cells. [Related pubchem assays: 1829 (Project Summary), 1814 (Primary HTS)]; type: functional; conditions: not given

Compound	EC50
Cc1csc(NC(=O)Nc2ccccc2[N+](=O)[O-])n1	12.5 µM (active)

system: Streptococcus sp. 'group A'; test: growth inhibition of control SK(-) GAS strain, dose response, counter-screen for streptokinase expression inhibitor project, luminescence, kanamycin, BacTiterGlo, confirmation (AID 1900); type: functional, organism-based; conditions: not given

Compound	EC50
CCCOc1ccc(C(=O)NNC(=S)NC(=O)c2ccccc2[N+](=O)[O-])cc1	2.79 µM (active)
COc1ccc(S(=O)(=O)N2CCOC2CNC(=O)C(=O)NCc2ccccc2Cl)cc1 (stereo not drawn)	> 150 µM (not active)
CCN(CC)CCN(C(=O)CCS(=O)(=O)c1ccccc1)c1nc2cc(C)cc(C)c2s1	> 150 µM (not active)
CN(Cc1ccc(N(C)C)cc1)C(=O)c1cc2ccccc2o1	> 150 µM (not active)
Cc1ccc(CN2CN(S(=O)(=O)c3cccs3)c3nc4ccccc4nc32)cc1	56 µM (active)
COc1ccc(O)c(CN2CCC(n3nccc3NC(=O)CCOc3ccccc3)CC2)c1	> 150 µM (not active)
O=C(Cc1ccccc1)NCCS(=O)(=O)N1CCN(c2ccccc2)CC1	> 150 µM (not active)
CNC(=O)/C(C#N)=C\c1cc(C)n(-c2ccc(N3CCOCC3)cc2)c1C	30.4 µM (active)

system: H4; test: Luminescence Cell-Based Dose Response HTS to Identify Activators of 5'UTR Stem-Loop Driven Prion Protein mRNA Translation in H4 Neuroglioblastoma Cells. [Related pubchem assays: 1829 (Project Summary), 1814 (Primary HTS)]; type: functional; conditions: Homo sapiens

Compound	EC50
Cc1csc(NC(=O)Nc2ccccc2[N+](=O)[O-])n1	94 µM (active)

target: T1, Heat shock factor protein 1 (Mus musculus, UniProt P38532); test: inhibition of MG132-induced HSE-luciferase signal, confirmation, cell-based, NIH3T3, luminescence, dose retest (AID 2382); type: functional; conditions: not given;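 further: NIH3T3 fibroblasts with HSF1-driven luciferase reporter stressed by proteasome inhibitor MG132; luminescence from HSF1-driven luciferase expression after 8 hours of MG132 stress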
T1 sequence (P38532 whole entry): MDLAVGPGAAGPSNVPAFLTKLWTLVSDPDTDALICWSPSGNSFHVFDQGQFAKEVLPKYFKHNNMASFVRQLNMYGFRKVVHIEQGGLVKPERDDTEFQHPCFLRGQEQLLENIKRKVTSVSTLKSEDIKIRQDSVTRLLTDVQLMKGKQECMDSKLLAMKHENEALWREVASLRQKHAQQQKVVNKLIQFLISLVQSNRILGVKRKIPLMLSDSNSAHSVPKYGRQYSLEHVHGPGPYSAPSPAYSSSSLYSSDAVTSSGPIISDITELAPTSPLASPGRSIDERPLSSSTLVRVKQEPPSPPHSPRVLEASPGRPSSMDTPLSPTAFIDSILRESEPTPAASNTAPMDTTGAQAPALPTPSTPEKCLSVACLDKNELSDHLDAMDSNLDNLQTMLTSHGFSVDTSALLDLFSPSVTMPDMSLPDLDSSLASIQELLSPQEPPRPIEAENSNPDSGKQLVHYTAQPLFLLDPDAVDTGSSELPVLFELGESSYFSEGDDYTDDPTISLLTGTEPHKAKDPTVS

Compound	EC50
Cc1ccccc1-n1c(C)nc2ccccc21	> 195 µM (not active)
CC1CC1C(=O)OCC(=O)NCc1ccc(Cl)cc1Cl (stereo not drawn)	> 195 µM (not active)
COC(=O)c1ccc(CNC(=O)COC(=O)COc2ccc(OC)cc2)cc1	> 195 µM (not active)
Cc1nc(C(=O)NNC(=O)c2cccc(Cl)c2)c(C(F)(F)F)o1	> 195 µM (not active)
O=C(COC(=O)CNC(=O)c1ccccc1F)Nc1cccnc1Cl	> 195 µM (not active)
Cc1ccc(N2C(=O)NC(NS(=O)(=O)c3ccccc3)(C(F)(F)F)C2=O)cc1 (stereo not drawn)	> 195 µM (not active)
CCC(C(=O)OCC(=O)Nc1cc(Cl)ccc1Cl)c1ccccc1 (stereo not drawn)	> 195 µM (not active)
NC(=O)CN1CCCC1=O	> 195 µM (not active)
Cc1cccc(NC2(C(F)(F)F)N=C(c3ccccc3)NC2=O)n1 (stereo not drawn)	71.7 µM (active)

target: T2, Streptokinase A (Streptococcus pyogenes serotype M1, UniProt P10520); test: S. pyogenes streptokinase expression inhibitors, potency, dose response, plasminogen activation absorbance, OD405 (AID 1914); type: functional, Streptococcus pyogenes M1 GAS; conditions: not given;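 further: secreted streptokinase activity via plasminogen activation per viability signal from cell pellet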
T2 sequence (P10520 whole entry): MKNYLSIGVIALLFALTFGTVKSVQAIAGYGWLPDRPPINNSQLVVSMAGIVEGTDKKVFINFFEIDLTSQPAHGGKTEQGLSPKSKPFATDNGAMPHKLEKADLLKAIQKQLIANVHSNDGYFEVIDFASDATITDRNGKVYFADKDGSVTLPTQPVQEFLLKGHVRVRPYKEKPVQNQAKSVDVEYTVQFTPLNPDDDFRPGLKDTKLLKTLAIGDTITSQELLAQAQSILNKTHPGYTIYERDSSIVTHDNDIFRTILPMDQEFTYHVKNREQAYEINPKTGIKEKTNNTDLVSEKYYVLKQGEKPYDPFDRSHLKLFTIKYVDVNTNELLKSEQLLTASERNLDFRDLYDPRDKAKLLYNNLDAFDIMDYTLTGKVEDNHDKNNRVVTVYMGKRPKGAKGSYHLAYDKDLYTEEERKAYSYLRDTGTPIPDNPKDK

Compound	EC50
CCCOc1ccc(C(=O)NNC(=S)NC(=O)c2ccccc2[N+](=O)[O-])cc1	> 150 µM (not active)
COc1ccc(S(=O)(=O)N2CCOC2CNC(=O)C(=O)NCc2ccccc2Cl)cc1 (stereo not drawn)	> 150 µM (not active)
CCN(CC)CCN(C(=O)CCS(=O)(=O)c1ccccc1)c1nc2cc(C)cc(C)c2s1	> 150 µM (not active)
CN(Cc1ccc(N(C)C)cc1)C(=O)c1cc2ccccc2o1	> 150 µM (not active)
Cc1ccc(CN2CN(S(=O)(=O)c3cccs3)c3nc4ccccc4nc32)cc1	> 150 µM (not active)
COc1ccc(O)c(CN2CCC(n3nccc3NC(=O)CCOc3ccccc3)CC2)c1	> 150 µM (not active)
O=C(Cc1ccccc1)NCCS(=O)(=O)N1CCN(c2ccccc2)CC1	> 150 µM (not active)
CNC(=O)/C(C#N)=C\c1cc(C)n(-c2ccc(N3CCOCC3)cc2)c1C	> 150 µM (not active)

system: not listed separately; test: C. albicans growth with fluconazole, confirmation, fluorescence, retest (AID 2467); type: functional, cell-based; conditions: not given

Compound	EC50
Cc1cc(-c2cc(C(=O)O)c3ccccc3n2)c(C)s1	3.94 µM (active)
N#C/C(=C(/O)c1ccco1)c1nc2ccccc2[nH]1	4.11 µM (active)
CC1(C)CC(N/C=C2/C(=O)N(Cc3ccc4c(c3)OCO4)C(=O)c3ccccc32)CC(C)(C)N1	5.68 µM (active)
CCc1nnc(NC(=O)Cn2ccc(C(F)(F)F)n2)s1	> 38 µM (not active)
Nc1ncnc2c1ncn2[C@@H]1O[C@H](CO)C[C@H]1O [CORDYCEPIN]	4.1 µM (active)
COc1cc(C(=O)OCc2cc(=O)c(O)co2)ccc1OC(F)F	> 38 µM (not active)
Cc1ccc(NNC(=O)c2cccs2)cc1Cl	1.62 µM (active)
CCCc1cc(O)nc(SCc2csc(-c3ccccc3)n2)n1	2.81 µM (active)
CNc1ccc(OC)cc1-n1cnc(-c2ccc([N+](=O)[O-])cc2)c1	> 38 µM (not active)

system: not listed separately; test: inhibitors of intracellular T. cruzi replication, confirmation, NIH3T3 host cells, beta-gal luminescence (AID 2044); type: functional, cell-based; conditions: not given;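 further: intracellular parasites grown in NIH/3T3 mouse fibroblasts as host cells; luminescent beta-galactosidase reporter signal from transgenic T. cruzi replicating inside host cells; inhibitors lower the luminescence signal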

Compound	EC50
CCN(CC)CCN(C(=O)CCS(=O)(=O)c1ccccc1)c1nc2cc(C)cc(C)c2s1	0.697 µM (active)

system: not listed separately; test: cytotoxicity toward NIH3T3 fibroblasts, dose response, counter-screen, cell-based, ATP luminescence, mouse fibroblasts (AID 2010); type: functional; conditions: not given;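 further: cells exposed to compound for about 90 hours before reading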

Compound	EC50
CCN(CC)CCN(C(=O)CCS(=O)(=O)c1ccccc1)c1nc2cc(C)cc(C)c2s1	> 30 µM (not active)

system: Streptococcus; test: Group A Streptococcus viability loss, dose response, counter-screen for streptokinase expression inhibitor project, luminescence, BacTiterGlo (AID 1915); type: functional, organism-based; conditions: not given;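 further: potency for reduction of bacterial viability or growth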

Compound	EC50
CCCOc1ccc(C(=O)NNC(=S)NC(=O)c2ccccc2[N+](=O)[O-])cc1	10.8 µM (active)
COc1ccc(S(=O)(=O)N2CCOC2CNC(=O)C(=O)NCc2ccccc2Cl)cc1 (stereo not drawn)	> 150 µM (not active)
CCN(CC)CCN(C(=O)CCS(=O)(=O)c1ccccc1)c1nc2cc(C)cc(C)c2s1	> 150 µM (not active)
CN(Cc1ccc(N(C)C)cc1)C(=O)c1cc2ccccc2o1	> 150 µM (not active)
Cc1ccc(CN2CN(S(=O)(=O)c3cccs3)c3nc4ccccc4nc32)cc1	63.7 µM (active)
COc1ccc(O)c(CN2CCC(n3nccc3NC(=O)CCOc3ccccc3)CC2)c1	> 150 µM (not active)
O=C(Cc1ccccc1)NCCS(=O)(=O)N1CCN(c2ccccc2)CC1	> 150 µM (not active)
CNC(=O)/C(C#N)=C\c1cc(C)n(-c2ccc(N3CCOCC3)cc2)c1C	98.2 µM (active)

system: not listed separately; test: Luminescence Cell-Based Dose Retest to Confirm Inhibitors of Cancer Stem Cells. [Related pubchem assays (depositor defined):AID2717, AID2721]; type: functional; conditions: Homo sapiens

Compound	AC50
Cc1ccc(NNC(=O)c2cccs2)cc1Cl	1.96 µM (active)

target: T1, Heat shock factor protein 1; test: HSF1 potentiators in luciferase reporter cells, confirmation, cell-based, NIH3T3, luminescence, dose retest (AID 435004); type: functional; conditions: not given;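 further: stress induced by proteasome inhibitor MG132 added 30 min after compound; luciferase reporter driven by HSF1 response element in NIH3T3 cells; actives raise luminescence as potentiators of the MG132 stress response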

Compound	EC50
Nc1cc(-c2ccco2)no1	60.4 µM (active)
O=[N+]([O-])c1cccc(-c2nnc(CNC3CC3)o2)c1	> 260 µM (inactive)
CCc1cccc(NC(=O)c2cccc(S(=O)(=O)N3CCN(C)CC3)c2)c1	> 260 µM (inactive)
CC(=O)OC(C)C(=O)NS(=O)(=O)c1ccc(C)cc1 (stereo not drawn)	> 260 µM (inactive)
O=C(CCc1nnc(Cc2ccc(-c3ccccc3)cc2)o1)N1CCCC1	> 260 µM (inactive)
COCCCN1C(=O)c2[nH]nc(-c3ccccc3O)c2C1c1cccc(Cl)c1 (stereo not drawn)	59.7 µM (active)
COc1ccc(NC(=O)c2nn(C)c(=O)c3ccccc23)cc1S(=O)(=O)Nc1ccccc1Cl	18.4 µM (active)
CCN(CC)C(S)=Nc1ccc(Cl)c(Cl)c1	> 260 µM (inactive)
O=C(c1ccc2nccnc2c1)N1CCCC(Nc2ccc(F)c(F)c2)C1 (stereo not drawn)	> 260 µM (inactive)
Cn1c(CO)cnc1SCC(=O)c1ccc(Cl)cc1	> 260 µM (inactive)
Cc1ccc(NC(=O)Cn2c(CCC(=O)O)ccc2-c2cccs2)cc1	> 260 µM (inactive)
Cc1ccc(NNC(=O)c2cccs2)cc1Cl	> 260 µM (inactive)
COc1ccc(C(=O)c2coc3ccc(O)c(CN(C)C)c23)cc1	> 260 µM (inactive)
COc1cc(/C=N/NC(=S)NC2CC3C=CC2C3)cc(OC)c1OC (stereo not drawn)	> 260 µM (inactive)

target: Cytochrome P450 2C19 (Homo sapiens, UniProt P33261); test: Cytochrome panel assay with activity outcomes. Panel member name: p450-cyp2c19 Compounds with AC50 equal or less than 10 uM are considered active; type: functional; conditions: read-out: AC50
Sequence (P33261 whole entry): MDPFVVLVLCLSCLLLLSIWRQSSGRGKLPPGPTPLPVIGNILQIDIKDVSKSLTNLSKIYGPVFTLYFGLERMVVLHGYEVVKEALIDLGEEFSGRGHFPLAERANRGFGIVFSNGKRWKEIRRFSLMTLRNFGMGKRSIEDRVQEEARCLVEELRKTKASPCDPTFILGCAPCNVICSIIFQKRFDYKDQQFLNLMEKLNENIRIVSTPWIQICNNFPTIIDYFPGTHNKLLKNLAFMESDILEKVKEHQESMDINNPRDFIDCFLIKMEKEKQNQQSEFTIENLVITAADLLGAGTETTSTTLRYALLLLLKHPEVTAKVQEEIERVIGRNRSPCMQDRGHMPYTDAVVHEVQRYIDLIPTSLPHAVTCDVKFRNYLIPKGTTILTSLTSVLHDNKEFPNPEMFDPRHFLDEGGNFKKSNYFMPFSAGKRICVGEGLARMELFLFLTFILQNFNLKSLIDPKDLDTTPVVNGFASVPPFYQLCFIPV

Compound	AC50
Cc1cccc(NC2(C(F)(F)F)N=C(c3ccccc3)NC2=O)n1 (stereo not drawn)	8.91 µM (inconclusive)

system: not listed separately; test: Shn3 3'UTR reporter inhibitors, dose response, cell-based, Clone20 osteoblasts, firefly luciferase, cherry-picked (AID 624132); type: functional; conditions: not given;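 further: firefly luciferase luminescence from reporter carrying the Shn3 3'UTR in osteoblasts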

Compound	AC50
COC(=O)C1=C(c2ccc(OCc3ccccc3)cc2)C[C@@H]2CC[C@H]1N2C(=O)NCc1ccc(OC)c(OC)c1	19.7 µM (active)
O=C(C1CCC(CNS(=O)(=O)c2cccs2)CC1)N1CCN(c2ccc(Cl)cc2)CC1 (stereo not drawn)	1.61 µM (active)

system: not listed separately; test: HepG2 cell cytotoxicity, dose response, cytotoxicity control for Shn3 inhibitor project, CellTiter-Glo, cherry-picked (AID 624134); type: functional, cell-based; conditions: not given

Compound	AC50
O=C(C1CCC(CNS(=O)(=O)c2cccs2)CC1)N1CCN(c2ccc(Cl)cc2)CC1 (stereo not drawn)	2.76 µM (active)

system: not listed separately; test: control 3'UTR Renilla luciferase suppression, dose response, counter-screen for Shn3 inhibitor project, cell-based, Clone20-Shn3RL, cherry-picked (AID 624133); type: functional; conditions: not given

Compound	AC50
COC(=O)C1=C(c2ccc(OCc3ccccc3)cc2)C[C@@H]2CC[C@H]1N2C(=O)NCc1ccc(OC)c(OC)c1	30.1 µM (active)
O=C(C1CCC(CNS(=O)(=O)c2cccs2)CC1)N1CCN(c2ccc(Cl)cc2)CC1 (stereo not drawn)	16 µM (active)

target: Cytochrome P450 3A4 (Homo sapiens, UniProt P08684); test: not given; conditions: not given;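 further: CYP3A4 tested as one member of a cytochrome P450 panel screen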
Sequence (P08684 whole entry): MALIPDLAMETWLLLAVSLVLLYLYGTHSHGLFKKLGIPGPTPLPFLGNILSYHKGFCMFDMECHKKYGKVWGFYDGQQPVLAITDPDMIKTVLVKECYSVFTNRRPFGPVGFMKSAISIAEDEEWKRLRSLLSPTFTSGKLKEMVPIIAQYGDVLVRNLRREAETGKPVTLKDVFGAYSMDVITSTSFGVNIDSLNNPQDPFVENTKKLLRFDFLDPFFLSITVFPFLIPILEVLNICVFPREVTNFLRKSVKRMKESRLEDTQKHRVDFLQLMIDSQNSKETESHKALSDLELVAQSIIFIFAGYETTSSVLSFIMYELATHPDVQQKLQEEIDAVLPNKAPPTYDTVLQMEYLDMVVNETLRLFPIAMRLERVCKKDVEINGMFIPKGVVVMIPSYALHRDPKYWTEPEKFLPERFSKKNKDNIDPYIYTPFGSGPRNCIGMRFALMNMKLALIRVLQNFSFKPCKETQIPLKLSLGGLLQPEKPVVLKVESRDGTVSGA

Compound	AC50
Cc1cccc(NC2(C(F)(F)F)N=C(c3ccccc3)NC2=O)n1 (stereo not drawn)	15.8 µM (inconclusive)

target: Cytochrome P450 2C9 (Homo sapiens, UniProt P11712); test: not given; conditions: not given
Sequence (P11712 whole entry): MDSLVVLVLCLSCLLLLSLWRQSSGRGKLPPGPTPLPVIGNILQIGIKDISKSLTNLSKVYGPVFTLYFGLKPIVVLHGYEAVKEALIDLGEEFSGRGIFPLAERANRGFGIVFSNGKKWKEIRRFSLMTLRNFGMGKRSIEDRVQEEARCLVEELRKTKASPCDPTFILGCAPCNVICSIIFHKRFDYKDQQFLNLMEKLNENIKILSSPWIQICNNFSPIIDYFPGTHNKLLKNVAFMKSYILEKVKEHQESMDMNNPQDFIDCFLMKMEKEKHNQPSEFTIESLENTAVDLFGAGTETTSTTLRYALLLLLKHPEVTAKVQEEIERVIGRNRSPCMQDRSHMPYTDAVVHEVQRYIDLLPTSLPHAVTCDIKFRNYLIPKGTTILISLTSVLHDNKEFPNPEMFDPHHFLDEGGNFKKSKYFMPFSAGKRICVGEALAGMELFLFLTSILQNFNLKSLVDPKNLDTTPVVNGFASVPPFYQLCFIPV

Compound	AC50
Cc1cccc(NC2(C(F)(F)F)N=C(c3ccccc3)NC2=O)n1 (stereo not drawn)	12.6 µM (inconclusive)
